# Earlier results as cited in patent US20140308215A1, “ANTIPERSPIRANT COMPOSITIONS AND METHOD FOR REDUCING PERSPIRATION” (Conopco, Inc., d/b/a Unilever, priority 2011, published 2014).
# Conditions: Hildebrand Solubility Parameter of the liquid carrier
row,SMILES,HSP
1,CCCCCCCCCCCCCCCC [Hexadecane],16.36 (MPa)^0.5
2,CCCCCCCCCCCCCC(=O)OC(C)C [Isopropyl myristate],16.40 (MPa)^0.5
3,CCCCCCCCCCC(CO)CCCCCCCC (stereo not shown) [Octyl dodecanol],18.25 (MPa)^0.5
4,CCCCC(CC)C(=O)OCC(COC(=O)C(CC)CCCC)OC(=O)C(CC)CCCC (stereo not shown) [Triethylhexanoin],18.02 (MPa)^0.5
